Test results reported in publication PMC6718736, “Validation of in vitro methods for human cytochrome P450 enzyme induction: Outcome of a multi-laboratory study” (Toxicology in Vitro, 2019).
Like-named read-outs stand apart in the source and are kept apart here.

How the values were obtained:
CYP1A2 [1] = experiment: CYP1A2 enzyme induction assay in cryopreserved HepaRG cells (phenacetin probe, LC/MS); type: in vitro ADME, human; conditions: for Assigned classification CYP1A2: HepaRG; for Assigned classification CYP1A2: key: 1=Positive=inducer; 0=Negative=non-inducer
CYP2B6 [2] = experiment: CYP2B6 enzyme induction assay in cryopreserved HepaRG cells (bupropion probe, LC/MS); type: in vitro ADME, human; conditions: for Prediction in vivo inducer: Cmax/F2 >0.5 criterion; for Assigned classification CYP2B6: HepaRG; for Assigned classification CYP2B6: key: 1=Positive=inducer; 0=Negative=non-inducer
CYP3A4 [3] = experiment: CYP3A4 enzyme induction assay in cryopreserved HepaRG cells (midazolam probe, LC/MS); type: in vitro ADME, human; conditions: for Assigned classification CYP3A4: HepaRG; for Assigned classification CYP3A4: key: 1=Positive=inducer; 0=Negative=non-inducer
CYP1A2 [4] = experiment: CYP1A2 enzyme induction assay in cryopreserved primary human hepatocytes (PHH); type: in vitro ADME; conditions: for Prediction in vivo inducer: Cmax/F2 >0.5 criterion; for Assigned classification CYP1A2: PHH;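 for Assigned classification CYP1A2: code 1 means positive inducer and 0 means non-inducer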
CYP2B6 [5] = experiment: CYP2B6 enzyme induction assay in cryopreserved primary human hepatocytes (PHH); type: in vitro ADME; conditions: for Assigned classification CYP2B6: PHH;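 for Assigned classification CYP2B6: code 1 means positive inducer and 0 means non-inducer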
[6] = Solubility by visual inspection (DMSO stock solution and assay medium); type: physicochemical; conditions: assay medium
Experimental: The SOPs relied on visual inspection for solubility observation. […] The absence of precipitation in the medium was checked pre- and post-incubation (24 hours) by centrifugation of the sample and observation of any precipitation (pellet residue).

[7] = Solubility by nephelometry (EURL ECVAM); type: physicochemical
Excerpt: In addition to the visual inspection performed by the validation laboratories as described in the SOP, EURL ECVAM introduced nephelometry for systematic solubility determination of the 13 validation set chemicals. Nephelometry uses a laser beam and the principle of Tyndall effect light scatter to detect turbidity due to insolubility. The nephelometer method used formazin as reference item (1, 5, 10 and 20 nephelometric turbidity units (NTU)) to calculate the relative turbidity (RTU) of the validation set of chemicals. To the naked eye, 20 NTU is perceptible, while the nephelometer was sensitive to 5 NTU, with 1 NTU equivalent to background (solvent/medium blank).

CYP1A2 [8] = conditions: cited from earlier work
[9] = cited from earlier work
CYP = CYP isoforms induced; ref Abadie et al. (2009), Richert et al. (2010), Preissner et al. (2010), Hoffmann et al. (2014); cited from earlier work
CYP2B6 [10] = conditions: cited from earlier work
CYP3A4 [11] = conditions: cited from earlier work
CYP3A4 [12] = experiment: CYP3A4 enzyme induction assay in cryopreserved primary human hepatocytes (PHH); conditions: for Assigned classification CYP3A4: PHH
[13] = human in vivo, CYP named without remark = induced, ref references in the cell, Washington University database, Hoffmann et al. (2014), Pelkonen et al. (2008), Hukkanen et al. (2012)

In the case of `O=C1NC(=O)C(c2ccccc2)(c2ccccc2)N1` [Phenytoin sodium], the “Prediction in vivo inducer” value (CYP1A2 [1]; CYP1A2, HepaRG cells, Cmax/F2 >0.5 criterion) is reported as “Yes”, the F2 (CYP1A2 [1]; CYP1A2, HepaRG cells, in vitro concentration producing 2-fold induction) is reported as 36.5 µM and the Induction in vitro (CYP1A2 [1]; CYP1A2, HepaRG cells, positive in one batch in each of the three laboratories) is reported as “Yes”. For the same compound, the “Assigned classification CYP1A2” value (CYP1A2 [1]; Lab 1, batch 20) was 1, the “Assigned classification CYP1A2” value (CYP1A2 [1]; Lab 1, batch 35) was 1 and the “Assigned classification CYP1A2” value (CYP1A2 [1]; Lab 1, batch 36) was 1. For the same compound, the “Assigned classification CYP1A2” value (CYP1A2 [1]; Lab 2, batch 20) was 1, the “Assigned classification CYP1A2” value (CYP1A2 [1]; Lab 2, batch 35) was 1 and the “Assigned classification CYP1A2” value (CYP1A2 [1]; Lab 2, batch 36) was 1. For the same compound, the “Assigned classification CYP1A2” value (CYP1A2 [1]; Lab 3, batch 20) was 1, the “Assigned classification CYP1A2” value (CYP1A2 [1]; Lab 3, batch 35) was 0 and the “Assigned classification CYP1A2” value (CYP1A2 [1]; Lab 3, batch 36) was 1. The “Prediction in vivo inducer” value (CYP2B6 [2]; CYP2B6, HepaRG cells, listed as Phenytoin) was “Yes”, the “Prediction in vivo inducer” value (CYP2B6 [2]; CYP2B6, HepaRG cells, listed as phenytoin) was “correctly classified” and the F2 (CYP2B6 [2]; CYP2B6, HepaRG cells, in vitro concentration producing 2-fold induction) was 1.35 µM. For the same compound, the Induction in vitro (CYP2B6 [2]; CYP2B6, HepaRG cells, positive in one batch in each of the three laboratories) was “Yes”, the “Assigned classification CYP2B6” value (CYP2B6 [2]; Lab 1, batch 20) was 1 and the “Assigned classification CYP2B6” value (CYP2B6 [2]; Lab 1, batch 35) was 1. For the same compound, the “Assigned classification CYP2B6” value (CYP2B6 [2]; Lab 1, batch 36) was 1, the “Assigned classification CYP2B6” value (CYP2B6 [2]; Lab 2, batch 20) was 1 and the “Assigned classification CYP2B6” value (CYP2B6 [2]; Lab 2, batch 35) was 1. For the same compound, the “Assigned classification CYP2B6” value (CYP2B6 [2]; Lab 2, batch 36) was 1, the “Assigned classification CYP2B6” value (CYP2B6 [2]; Lab 3, batch 20) was 1 and the “Assigned classification CYP2B6” value (CYP2B6 [2]; Lab 3, batch 35) was 1. For the same compound, the “Assigned classification CYP2B6” value (CYP2B6 [2]; Lab 3, batch 36) was 1, the F2 (CYP3A4 [3]; CYP3A4, HepaRG cells) was 12.2 µM and the Induction in vitro (CYP3A4 [3]; CYP3A4, HepaRG cells) was “Yes”. For the same compound, the “Prediction in vivo inducer” value (CYP3A4 [3]; CYP3A4, HepaRG cells) was “Yes”, the “Assigned classification CYP3A4” value (CYP3A4 [3]; Lab 1, batch 20) was 1 and the “Assigned classification CYP3A4” value (CYP3A4 [3]; Lab 1, batch 35) was 1. For the same compound, the “Assigned classification CYP3A4” value (CYP3A4 [3]; Lab 1, batch 36) was 1, the “Assigned classification CYP3A4” value (CYP3A4 [3]; Lab 2, batch 20) was 1 and the “Assigned classification CYP3A4” value (CYP3A4 [3]; Lab 2, batch 35) was 1. For the same compound, the “Assigned classification CYP3A4” value (CYP3A4 [3]; Lab 2, batch 36) was 1, the “Assigned classification CYP3A4” value (CYP3A4 [3]; Lab 3, batch 20) was 1 and the “Assigned classification CYP3A4” value (CYP3A4 [3]; Lab 3, batch 35) was 1. The “Assigned classification CYP3A4” value (CYP3A4 [3]; Lab 3, batch 36) was 1, the “Prediction in vivo inducer” value (CYP1A2 [4]; CYP1A2, PHH, listed as Phenytoin) was “Yes” and the “Prediction in vivo inducer” value (CYP1A2 [4]; CYP1A2, PHH, listed as phenytoin) was “correctly predicted CYP1A2 induction”. For the same compound, the F2 (CYP1A2 [4]; CYP1A2, PHH, in vitro concentration producing 2-fold induction) was 16.2 to 48.6 µM, the Induction in vitro (CYP1A2 [4]; CYP1A2, PHH, positive in one donor in each of the three laboratories) was “Yes” and the “Assigned classification CYP1A2” value (CYP1A2 [4]; Lab 1, batch 0 6 A) was 1. The “Assigned classification CYP1A2” value (CYP1A2 [4]; Lab 1, batch 4 0 8) was 0, the “Assigned classification CYP1A2” value (CYP1A2 [4]; Lab 1, batch 8 0 8) was 0 and the “Assigned classification CYP1A2” value (CYP1A2 [4]; Lab 2, batch 0 6 A) was 1. The “Assigned classification CYP1A2” value (CYP1A2 [4]; Lab 2, batch 4 0 8) was 0, the “Assigned classification CYP1A2” value (CYP1A2 [4]; Lab 2, batch 8 0 8) was 0 and the “Assigned classification CYP1A2” value (CYP1A2 [4]; Lab 3, batch 0 6 A) was 1. The “Assigned classification CYP1A2” value (CYP1A2 [4]; Lab 3, batch 4 0 8) was 1, the “Assigned classification CYP1A2” value (CYP1A2 [4]; Lab 3, batch 8 0 8) was 0 and the F2 (CYP2B6 [5]; CYP2B6, PHH) was 0.60 to 48.6 µM. For the same compound, the Induction in vitro (CYP2B6 [5]; CYP2B6, PHH) was “Yes”, the “Prediction in vivo inducer” value (CYP2B6 [5]; CYP2B6, PHH) was “Yes” and the “Prediction in vivo inducer” value (CYP2B6 [5]; CYP2B6, PHH, Cmax/F2 >0.5 criterion) was “positive”. The “Assigned classification CYP2B6” value (CYP2B6 [5]; Lab 1, batch 0 6 A) was 1, the “Assigned classification CYP2B6” value (CYP2B6 [5]; Lab 1, batch 4 0 8) was 1 and the “Assigned classification CYP2B6” value (CYP2B6 [5]; Lab 1, batch 8 0 8) was 0. The “Assigned classification CYP2B6” value (CYP2B6 [5]; Lab 2, batch 0 6 A) was 1, the “Assigned classification CYP2B6” value (CYP2B6 [5]; Lab 2, batch 4 0 8) was 1 and the “Assigned classification CYP2B6” value (CYP2B6 [5]; Lab 2, batch 8 0 8) was 0. For the same compound, the “Assigned classification CYP2B6” value (CYP2B6 [5]; Lab 3, batch 0 6 A) was 1, the “Assigned classification CYP2B6” value (CYP2B6 [5]; Lab 3, batch 4 0 8) was 1 and the “Assigned classification CYP2B6” value (CYP2B6 [5]; Lab 3, batch 8 0 8) was 1. The HepaRG medium stability ([6]; Lab 1, visual observation) was 40 µg/mL, the HepaRG medium stability ([6]; Lab 2, visual observation) was 20 µg/mL and the HepaRG medium stability ([6]; Lab 3, visual observation) was 40 µg/mL. The PHH medium stability ([6]; Lab 4, visual observation) was 40 µg/mL, the PHH medium stability ([6]; Lab 5, visual observation) was 20 µg/mL and the PHH medium stability ([6]; Lab 6, visual observation) was 10 µg/mL. For the same compound, the “nephelometry finding in assay medium” value ([7]; 40 μg/ml, the two media) was “insoluble suspensions”, the HepaRG medium stability ([7]; ECVAM nephelometry, HepaRG medium, ^2 = solubility limit) was 40 µg/mL and the PHH medium stability ([7]; ECVAM nephelometry, PHH medium, ^2 = solubility limit) was 20 µg/mL. For the same compound, the Induction in vivo (CYP1A2 [8]; CYP1A2, human, ref Table 1) was “Yes”, the “CYP induction in vivo literature reference: CYP1A2” value (CYP1A2 [8]; [13]) was “CYP1A2” and the Cmax ([9]; human in vivo plasma concentration, normal dose) was 40 to 80 µM. The Cmax ([9]; human in vivo, normal dose (Table 10)) was 40 to 80 µM, the “CYP induction in vitro (human hepatocytes)” value (CYP) was “CYP1A2, CYP2B6, CYP3A4” and the Induction in vivo (CYP2B6 [10]; CYP2B6, human in vivo reference classification) was “Yes”. For the same compound, the Induction in vivo (CYP2B6 [10]; CYP2B6, human, ref Table 1) was “Yes”, the “CYP induction in vivo literature reference: CYP2B6” value (CYP2B6 [10]; [13]) was “CYP2B6” and the Induction in vivo (CYP3A4 [11]; CYP3A4, human in vivo reference classification (Table 11)) was “Yes”. The “CYP induction in vivo literature reference: CYP3A4” value (CYP3A4 [11]; [13]) was “CYP3A4”, the F2 (CYP3A4 [12]; CYP3A4, PHH) was 1.80 to 16.2 µM and the Induction in vitro (CYP3A4 [12]; CYP3A4, PHH) was “Yes”. For the same compound, the “Prediction in vivo inducer” value (CYP3A4 [12]; CYP3A4, PHH) was “Yes”, the “Assigned classification CYP3A4” value (CYP3A4 [12]; Lab 1, batch 0 6 A) was 1 and the “Assigned classification CYP3A4” value (CYP3A4 [12]; Lab 1, batch 4 0 8) was 0. The “Assigned classification CYP3A4” value (CYP3A4 [12]; Lab 1, batch 8 0 8) was 1, the “Assigned classification CYP3A4” value (CYP3A4 [12]; Lab 2, batch 0 6 A) was 1 and the “Assigned classification CYP3A4” value (CYP3A4 [12]; Lab 2, batch 4 0 8) was 1. The “Assigned classification CYP3A4” value (CYP3A4 [12]; Lab 2, batch 8 0 8) was 1, the “Assigned classification CYP3A4” value (CYP3A4 [12]; Lab 3, batch 0 6 A) was 1 and the “Assigned classification CYP3A4” value (CYP3A4 [12]; Lab 3, batch 4 0 8) was 1. For the same compound, the “Assigned classification CYP3A4” value (CYP3A4 [12]; Lab 3, batch 8 0 8) was 1.
